According to patent US7183075B2, “Purified and isolated potassium-chloride cotransporter nucleic acids and polypeptides and therapeutic and screening methods using same” (Vanderbilt University, priority 2000, dated 2007):
Like-named read-outs stand apart in the source and are kept apart here.

Target: T1, hKCC2 (Homo sapiens, UniProt Q9H2X9, L143X/L381X/L939X)
T1 construct: expressed in transfected cells; host or cells: Xenopus laevis oocytes injected with 25 ng hKCC2 cRNA
T1 sequence (Q9H2X9 with tags, fused parts or gaps isoform Q9H2X9-2 L120X/L358X/L916X limits assumed): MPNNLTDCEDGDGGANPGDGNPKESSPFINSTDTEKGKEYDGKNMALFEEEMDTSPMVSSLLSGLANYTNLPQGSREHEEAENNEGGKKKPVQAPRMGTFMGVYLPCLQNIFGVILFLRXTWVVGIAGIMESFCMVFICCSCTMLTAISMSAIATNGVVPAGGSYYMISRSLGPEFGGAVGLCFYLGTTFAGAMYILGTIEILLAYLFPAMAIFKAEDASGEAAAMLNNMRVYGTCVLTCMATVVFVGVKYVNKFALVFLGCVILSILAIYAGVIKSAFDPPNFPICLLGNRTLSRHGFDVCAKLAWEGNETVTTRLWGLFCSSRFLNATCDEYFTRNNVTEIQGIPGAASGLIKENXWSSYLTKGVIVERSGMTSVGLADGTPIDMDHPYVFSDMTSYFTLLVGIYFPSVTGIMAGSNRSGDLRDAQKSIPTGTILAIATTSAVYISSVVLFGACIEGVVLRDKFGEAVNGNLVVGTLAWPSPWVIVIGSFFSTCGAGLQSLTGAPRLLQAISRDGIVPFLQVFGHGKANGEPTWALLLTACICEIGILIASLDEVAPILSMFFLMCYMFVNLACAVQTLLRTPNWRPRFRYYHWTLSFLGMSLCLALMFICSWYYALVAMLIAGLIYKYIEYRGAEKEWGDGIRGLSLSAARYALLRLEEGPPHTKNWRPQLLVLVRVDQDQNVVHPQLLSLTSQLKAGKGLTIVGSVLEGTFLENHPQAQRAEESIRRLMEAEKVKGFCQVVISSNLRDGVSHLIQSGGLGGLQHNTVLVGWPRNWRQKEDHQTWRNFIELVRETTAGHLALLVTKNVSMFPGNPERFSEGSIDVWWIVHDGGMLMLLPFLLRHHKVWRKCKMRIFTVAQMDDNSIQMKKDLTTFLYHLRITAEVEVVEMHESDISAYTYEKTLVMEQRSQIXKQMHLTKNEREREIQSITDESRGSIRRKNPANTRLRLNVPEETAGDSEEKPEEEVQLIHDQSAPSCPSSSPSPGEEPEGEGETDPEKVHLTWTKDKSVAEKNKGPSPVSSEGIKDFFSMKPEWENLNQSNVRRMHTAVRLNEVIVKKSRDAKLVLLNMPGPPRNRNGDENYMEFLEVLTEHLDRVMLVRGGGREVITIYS
Assay: 86Rb+ uptake (K+-Cl- cotransport) in Xenopus oocytes injected with hKCC2 cRNA
Assay type: cell-based
Protocol: Oocytes were surgically collected from anesthetized female Xenopus adults under 0.17% tricaine and incubated for 1 hour with vigorous shaking in frog Ringer ND96 (96 mM sodium chloride, 2 mM potassium chloride, 1.8 mM calcium chloride, 1.0 mM magnesium chloride, and 5 mM Hepes/Tris, pH 7.4) in the presence of 2 mg/ml collagenase B. Oocytes were then washed four times in ND96, manually defolliculated, and incubated overnight in ND96 at 18° C. On the next day, defolliculated stage V–VI oocytes were injected with 50 nl of water or a solution containing cRNA at a concentration of 0.25–0.5 μg/μl (25 ng/oocyte). Oocytes were incubated at 17–18° C. in ND96 (96 mM sodium chloride, 2 mM potassium chloride, 1.8 mM calcium chloride, 1.0 mM magnesium chloride, and 5 mM Hepes/Tris, pH 7.4), supplemented with 2.5 mM sodium pyruvate and 5 mg/100 ml gentamicin, for 3–4 days. The incubation medium was changed every 24 hours. On the day of the experiment, oocytes were switched to Cl^−-free ND96 (96 mM Na^+ Na^+ isethionate, 2 mM K^+ gluconate, 6 mM Ca^2+ gluconate, 1 mM Mg^2+ gluconate, 5 mM Hepes, 2.5 mM sodium pyruvate, 5 mg/100 ml gentamicin, pH 7.4) for 2 hours prior to the uptake assay.
K^+—Cl^− cotransport was assessed by measuring tracer ^86Rb^+ uptake (NEN® Life Science Products of Boston, Mass.) in experimental groups of at least 15 oocytes. […] All uptake solutions also contained 1.8 mM CaCl2, 1 mM MgCl2, 5 mM Hepes, pH 7.4, and were supplemented with 1 mM ouabain and […] ^86Rb^+. Isotonic conditions were generated by supplementing the same solutions with 3.5 g/100 ml sucrose to reach isosmolar conditions for oocytes (˜210 mOsm/kg). Ouabain was added to prevent ^86Rb^+ uptake via the Na^+—K^+-ATPase. The absence of extracellular Na^+ and the hypotonicity of the uptake medium prevented ^86Rb^+ uptake via the endogenous Na^+—K^+-2Cl^− cotransporter that is present in oocytes (Gamba et al. (1994) J Biol Chem 269:17713–17722).
All uptake assays were performed at 32° C. At the end of the uptake period, oocytes were washed five times in ice-cold uptake solution without isotope to remove extracellular fluid tracer. Oocytes were dissolved in 10% SDS, and tracer activity was determined for each oocyte by β-scintillation counting.
Uptake assays to detect K^+—Cl^− cotransport mediated by a hKCC2 were performed using similar methods.
FIG. 10 presents line graphs depicting concentration dependence of K^+—Cl^− cotransport mediated by hKCC2, which was used to calculate ion affinities using analogous methods. Uptake assays were simultaneously assessed in water-injected oocytes. To determine ^86Rb^+ uptake due to KCC2, the mean values for water groups were subtracted from the mean values for corresponding KCC2 groups. Uptake assays in hypotonic media were performed for 60 minutes with a fixed concentration of K^+or Cl^− at 50 mM. The concentration of the counterion was varied from 0 to 50 mM as indicated.

[1] = hKCC2, hypotonic, counterion fixed at 50 mM, 86Rb+ as substitute for K+, read-out: Km (Michaelis-Menten fit)

Compound: Cl [Chloride]
- Km (KCC2, read-out: Chloride Km): 6.3 mM
- Km [1]: 6.31 mM

Compound: [K+] [Potassium]
- Km (KCC2, read-out: Potassium Km): 9.3 mM
- Km [1]: 9.3 mM

Compound: NS(=O)(=O)c1cc(C(=O)O)c(NCc2ccco2)cc1Cl [furosemide]
- IC50 (KCC2): 90 µM

Compound: HgCl2 [Hg—Cl2]
- response of KCC2 to mercury (50 μM HgCl2, hypotonic): sensitive
